From article PMC6017704 (Molecules : A Journal of Synthetic Chemistry and Natural …, 2018)

Experiments:
[1] = test system: human umbilical vein endothelial cells (PUMC-HUVEC-T1); assay: HUVEC cell anti-proliferation assay (MTT); type: cell-based; settings: for inhibition ratio in HUVEC / viability at 10 µM: 10 µM; for viability at 1 µM / viability at 10 µM / IC50: Homo sapiens, 72 h, MTT; for viability at 1 µM / viability at 10 µM: read-out: Relative Cell Viability (%) ± SD (n = 3); for IC50: n = 3, read-out: IC50, HUVEC relative cell viability
From the text: A major mediator of VEGF-driven responses in endothelial cells is VEGFR-2, which is considered to play a decisive role in both physiologic and pathologic angiogenesis. The homogeneous time-resolved fluorescence (HTRF) method was used in the assay that determined the inhibitory activities of target compounds against VEGFR-2 kinase. Owing to VEGFR-2 overexpression in human umbilical vein endothelial cells (HUVEC), these target compounds were further evaluated in vitro anti-proliferation activity against HUVEC. MTT assay was used in the cell assay. […] In order to ensure the repeatability of the activity test, we choose to complete biological evaluation under the dark condition.
SV40T transforms human umbilical vein endothelial cells (PUMC-HUVEC-T1) were gifts from Dr. Lihua Ding (Institute of Biotechnology, Beijing, China). MTT Cell Proliferation and Cytotoxicity Assay Kit (#GK-5605, Genview) was used to measure cell viability and proliferation. Metabolically active cells in part by the action of dehydrogenase enzymes reduced the yellow tetrazolium MTT to generate purple reducing equivalents such as NADH and NADPH. The resulting intracellular purple formazan can be solubilized and quantified by spectrophotometer.
For MTT assay, cells were seeded into separate 96-well plates at 5000 cells/well and cultured in an incubator containing 5% CO2 at 37 °C for 24 h. Subsequently, target compounds were dissolved into different concentrations with culture medium from 10 mM stock solutions in DMSO, respectively. Then target compounds were added and incubated at 37 °C for 72 h. All assays were performed in triplicate. The untreated groups were used as a vehicle of control. Following the 72-h incubation, discarded culture medium and washed with PBS once time followed by adding 180 µL of fresh culture medium. Cell viability was quantified with MTT assay. According to the manufacturer instructions, 20 µL of MTT solution that was previously thawed and equilibrated to room temperature was added to each well and plates were incubated at 37 °C for 4 h. Termination of culture, the supernatant was carefully discarded and added 150 µL of Formazan dissolution for 10 min vibration at room temperature. The OD value of each well was measured by a spectrophotometer at 490 nm and the inhibitory rates expressed as percentages of the vehicle control (100%). Data processing: ratio = Vsample/Vcontrol × 100%. Vsample is for compound treatment group while Vcontrol is for solvent control group. The GraphPad Prism 5.0 software was used to draw nonlinear regression model and calculated IC50 values.

[2] = molecular target: T1, VEGFR-2 (KDR) kinase (Homo sapiens, UniProt P35968); assay: VEGFR-2 kinase assay (HTRF KinEASE-TK); type: biochemical; settings: for IC50: HTRF, ATP 3 µM, 40 min, dark condition, n = 3
T1 construct: purchased Carna Biosciences
T1 sequence (P35968 20-1356): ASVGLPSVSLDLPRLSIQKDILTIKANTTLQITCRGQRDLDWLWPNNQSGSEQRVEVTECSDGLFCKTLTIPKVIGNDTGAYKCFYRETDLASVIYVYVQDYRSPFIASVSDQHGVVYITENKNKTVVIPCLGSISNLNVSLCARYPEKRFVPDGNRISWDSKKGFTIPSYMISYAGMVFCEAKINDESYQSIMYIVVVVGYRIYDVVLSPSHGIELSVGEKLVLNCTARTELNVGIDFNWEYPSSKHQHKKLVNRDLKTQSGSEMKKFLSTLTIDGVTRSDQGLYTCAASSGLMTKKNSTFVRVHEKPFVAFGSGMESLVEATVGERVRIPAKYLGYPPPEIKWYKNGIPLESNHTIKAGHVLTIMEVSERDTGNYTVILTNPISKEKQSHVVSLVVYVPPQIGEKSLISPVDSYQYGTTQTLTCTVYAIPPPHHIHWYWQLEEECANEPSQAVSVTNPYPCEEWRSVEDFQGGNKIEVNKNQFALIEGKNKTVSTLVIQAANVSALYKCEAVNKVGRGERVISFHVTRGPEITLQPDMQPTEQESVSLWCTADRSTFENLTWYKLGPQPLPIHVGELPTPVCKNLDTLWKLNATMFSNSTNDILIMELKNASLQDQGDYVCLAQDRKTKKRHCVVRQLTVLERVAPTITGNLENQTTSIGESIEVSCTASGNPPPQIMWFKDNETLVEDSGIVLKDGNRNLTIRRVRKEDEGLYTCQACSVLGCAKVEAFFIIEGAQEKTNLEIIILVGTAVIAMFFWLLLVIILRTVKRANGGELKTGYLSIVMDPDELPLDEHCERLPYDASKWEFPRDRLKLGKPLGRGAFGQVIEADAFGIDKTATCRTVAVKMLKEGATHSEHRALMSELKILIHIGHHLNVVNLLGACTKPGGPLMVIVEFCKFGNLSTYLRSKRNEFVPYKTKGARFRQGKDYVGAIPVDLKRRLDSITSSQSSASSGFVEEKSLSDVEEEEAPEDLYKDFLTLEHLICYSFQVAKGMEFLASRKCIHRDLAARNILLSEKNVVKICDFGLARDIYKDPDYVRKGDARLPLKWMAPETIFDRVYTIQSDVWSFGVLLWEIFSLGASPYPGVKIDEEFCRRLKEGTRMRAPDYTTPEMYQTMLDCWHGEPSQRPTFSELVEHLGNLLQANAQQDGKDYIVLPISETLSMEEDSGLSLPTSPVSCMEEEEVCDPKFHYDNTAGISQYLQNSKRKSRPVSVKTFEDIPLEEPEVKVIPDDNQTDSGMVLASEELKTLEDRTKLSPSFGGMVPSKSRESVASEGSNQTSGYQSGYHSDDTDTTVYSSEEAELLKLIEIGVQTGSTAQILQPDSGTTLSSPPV

Structure (SMILES)	IC50 [2]	increase of VEGFR-2 activity compared with TM2 ([2]; relative to TM2)	inhibition ratio in HUVEC [1]	viability at 1 µM [1]	viability at 10 µM [1]	IC50 [1]
CNC(=O)c1ccccc1Sc1ccc2c(N=Nc3ccc(C)[nH]3)n[nH]c2c1 [TM11, N-methyl-2-(3-((5-methyl-1H-pyrrol-2-yl)diazenyl)-1H-indazol-6-ylthio)benzamide]	330 ± 1.14 nM		exceeding 60%	67.03 ± 0.19%	31 ± 0.61%	2.15 µM
CNC(=O)c1ccccc1Sc1ccc2c(N=Nc3cc(C)[nH]c3C)n[nH]c2c1 [TM10, 2-(3-((2,5-dimethyl-1H-pyrrol-3-yl)diazenyl)-1H-indazol-6-ylthio)-N-methylbenzamide]	44 ± 1.15 nM			99.29 ± 0.78%	66.2 ± 4.43%	
CNC(=O)c1ccccc1Sc1ccc2c(/C=C/c3ccccn3)n[nH]c2c1 [Axitinib, reference compound]				80 ± 6.64%	53.2 ± 9.11%	
CNC(=O)c1ccccc1Sc1ccc2c(N=Nc3c(OC)cc(N)cc3OC)n[nH]c2c1 [TM2, 2-(3-((4-amino-2,6-dimethoxyphenyl)diazenyl)-1H-indazol-6-ylthio)-N-methylbenzamide]			≤ 20%	107 ± 1.29%	94.4 ± 5.01%	

Further lines, with some results ahead:

IC50 [2]	increase of VEGFR-2 activity compared with TM2 ([2]; relative to TM2)	Structure (SMILES)	inhibition ratio in HUVEC [1]	viability at 1 µM [1]	viability at 10 µM [1]	IC50 [1]
135 ± 1.25 nM		CNC(=O)c1ccccc1Sc1ccc2c(N=Nc3ccc(N(C)C)cc3)n[nH]c2c1 [TM4, 2-(3-((4-(dimethylamino)phenyl)diazenyl)-1H-indazol-6-ylthio)-N-methylbenzamide]	≤ 20%	94.1 ± 1.89%	82.8 ± 5.32%	
158 ± 1.14 nM		CNC(=O)c1ccccc1Sc1ccc2c(N=Nc3cc(C)n(C)c3C)n[nH]c2c1 [TM8, N-methyl-2-(3-((1,2,5-trimethyl-1H-pyrrol-3-yl)diazenyl)-1H-indazol-6-ylthio)benzamide]		92.3 ± 9.05%	61.3 ± 10.9%	
123 ± 1.08 nM		CNC(=O)c1ccccc1Sc1ccc2c(N=Nc3ccc[nH]3)n[nH]c2c1 [TM7, 2-(3-((1H-pyrrol-2-yl)diazenyl)-1H-indazol-6-ylthio)-N-methylbenzamide]	exceeding 60%	84.4 ± 4.35%	39.1 ± 2.49%	5.73 µM
2290 ± 1.17 nM		CNC(=O)c1ccccc1Sc1ccc2c(N=Nc3cccn3C)n[nH]c2c1 [TM6, N-methyl-2-(3-((1-methyl-1H-pyrrol-2-yl)diazenyl)-1H-indazol-6-ylthio)benzamide]	exceeding 60%	97 ± 10.4%	19.3 ± 3.82%	5.03 µM
201 ± 1.26 nM		CNC(=O)c1ccccc1Sc1ccc2c(N=Nc3[nH]c(C)cc3C)n[nH]c2c1 [TM9, 2-(3-((3,5-dimethyl-1H-pyrrol-2-yl)diazenyl)-1H-indazol-6-ylthio)-N-methylbenzamide]		68.54 ± 0.29%	32.2 ± 1.99%	2.18 µM
195 ± 1.11 nM	more than ten times	CNC(=O)c1ccccc1Sc1ccc2c(N=Nc3ccc(N)cc3OC)n[nH]c2c1 [TM3, 2-(3-((4-amino-2-methoxyphenyl)diazenyl)-1H-indazol-6-ylthio)-N-methylbenzamide]	≤ 20%	125 ± 8.92%	84.1 ± 6.83%	
